The record followed here is publication PMC3017052, “A Novel Peptide Derived from Human Apolipoprotein E Is an Inhibitor of Tumor Growth and Ocular Angiogenesis” (PLoS ONE, 2011).

Common to all, as to assay type: cell-based, human
Data set [1] deals with HUVEC. Put plainly: Wound-healing/migration assay. Particulars: 50 ng/mL VEGF, apoEdp 6–100 µM, three independent experiments; read-out: IC50, inhibition of VEGF-induced HUVEC wound-healing migration. The method, then: An important angiogenic phenotype of ECs induced by VEGF is cell migration. The major aspects of VEGF action on ECs are its ability to act as a chemoattractant and to stimulate the angiogenic morphogenesis. […] Cell migration was examined after simulation of an artificial wound by perturbation of a cell monolayer using a 1-mL pipette tip. […] (Fig. 2C).
Figure 2 ApoEdp inhibits wound-healing migration in vitro. Monolayers of HUVECs were scraped and incubated in medium containing 50 ng/mL VEGF in the presence or absence of various concentrations of apoEdp. VEGF stimulated the migration of HUVECs in the scraped area. Representative photomicrographs of cells treated with (A) VEGF alone or with (B) VEGF and apoEdp together are shown. Solid lines indicate the initial scraping. […] The bar diagram is the quantitative measurement of cell migration inside the scraped area. The data shown are representative of three independent experiments. ** p<0. 01; and *** p<0.001.
To determine the effect of apoEdp on EC migration induced by VEGF, wound-healing assays were performed using HUVEC cells. Cells were allowed to grow to confluency on 6-well plates and washed twice with PBS. […] Migration of the cells into the wounded area was photographed with an Olympus U-RLF-T microscope and counted. […]

Data set [2] deals with VEGF-induced phosphorylation of Flk1, c-Src, Akt, eNOS, FAK, Erk1/2 in HUVECs. Put plainly: Western blot of VEGF-induced phosphorylation of angiogenic signaling molecules. Particulars: HUVEC, apoEdp 6–50 µM pre-treated 1 hr, VEGF 10 ng/mL 10 min, n = 5. How it is done:
Figure 7 Inhibition by apoEdp of VEGF-induced Flk-1. HUVECs were pre-treated with apoEdp at the indicated concentrations for 1 hr; VEGF (10 ng/mL) added and incubated at 37°C for 10 min, to measure the phosphorylation of Flk-1(7-A), c-Src(7-B), Akt(7-C), eNOS(7-D), FAK(7-E), and Erk1/2(7-F). Equal loading of total proteins was also measured as described in Materials and Methods. Values were normalized by arbitrarily setting the densitometry of control cell signals 1.0 (mean ± SEM, n = 5). The asterisks indicate significant differences compared with VEGF stimulation (*p<0.05, **p<0.01 and ***p<0.001).
Confluent HUVECs were grown in EBM-2 supplemented with 1% FBS for 24 hr and the medium was replaced with fresh low serum (1% FBS) media in the presence or absence of varying concentrations of apoEdp (6–50 µM). After 1 hr, VEGF was added to a concentration of 10 ng/mL and incubated for 10 min so that the phosphorylated forms of angiogenic signaling molecules could be detected. The cells were then lysed, quantified for protein concentration, and separated on 4–20% pre-cast SDS–PAGE gels. Western blots of control and treated lysates were performed with antibodies against the phospho form of Flk-1, c-Src, FAK, ERK1/2, Akt, and eNOS. […] All primary and secondary antibodies were obtained from Santa Cruz Biotechnology (Santa Cruz, CA).

Data set [3] concerns HUVEC. Particulars: 48 h. The method, then: To confirm that apoEdp affects cell survival, cell viability was determined using the cell titer 96®AQuous One solution cell proliferation kit. ApoEdp treatment of HUVECs induced a dose-dependent inhibition of cell viability (Fig. 1A). […] To determine whether apoEdp suppresses tumor growth by directly affecting tumor cells, we performed a cell viability assay using human breast cancer MDA-MB-231 cell line in vitro and cell titer 96®AQuous One solution cell proliferation kit.
Figure 1 ApoEdp affects HUVEC survival but not MDA-MB-231. A. HUVEC: ApoEdp has a significant effect on VEGF-induced HUVEC viability. Cells were treated with apoEdp at the indicated concentrations and incubated with constant 50 ng/mL VEGF for 48 hr. All values were normalized to cell control of no VEGF and no apoEdp. Cell viability values (mean ± SEM) are expressed as % of the value of the VEGF control. B. MDA-MB-231: ApoEdp has no effect on MDA-MB-231viability. ApoEdp has no significant effect on MDA-MB-231 survival. Cells were treated with apoEdp at the indicated concentrations and incubated at 37°C for 2 days. Cell viability values (mean ± SEM) are expressed as % of the value of the control (untreated cells). […]
The effect of apoEdp on ED survival was evaluated. […] Two days later, cell numbers were determined using the CellTiter96 AQueous One solution cell proliferation kit (Promega, Madison, WI).

On to Ac-LRKLRKRLLLRKLRKRLL-NH2 [apoEdp], for which the IC50 in the data set on HUVEC [1] was roughly 21.5 µM. Also, the “VEGF-induced phosphorylation of Flk1, c-Src, Akt, eNOS, FAK and Erk1/2” value in data set [2] was “significantly inhibited”. Besides, the “50% cytotoxicity (CC50), HUVEC viability” value in the data set with HUVEC [3] is “about 103 µM”.
